Source: ChEMBL document CHEMBL4765295, “Synthesis, pharmacological profile and 2D-QSAR studies of curcumin-amino acid conjugates as potential drug candidates” (Eur J Med Chem, 2020)
Values joined by “and” are separate entries in the source; they are usually repeats but may differ in a detail not shown here. Identical values can stand only once.

How the values were obtained:
Rattus norvegicus [1] = test: Antiinflammatory activity in Wistar rat model of carrageenan-induced paw edema assessed as reduction in thickness of paw edema at 10 mg/kg, ip pretreated for 1 hr followed by carrageenan challenge and measured after 1 hr (reference value: 2.41 +/-0.05 mm); format: functional; details: time 1 hr after carrageenan
Rattus norvegicus [2] = test: Anti-inflammatory activity in Wistar rat assessed as inhibition of carrageenan-induced paw edema at 10 mg/kg, ip pretreated for 1 hr followed by carrageenan challenge and measured after 1 hr relative to control (reference value: 0.00 +/-0.02 %); format: functional; details: time 2 hrs
Rattus norvegicus [3] = test: Antiinflammatory activity in Wistar rat model of carrageenan-induced paw edema assessed as reduction in thickness of paw edema at 10 mg/kg, ip pretreated for 1 hr followed by carrageenan challenge and measured after 2 hrs (reference value: 2.06 +/-0.09 mm); format: functional; details: time 3 hrs
Rattus norvegicus [4] = test: Anti-inflammatory activity in Wistar rat assessed as inhibition of carrageenan-induced paw edema at 10 mg/kg, ip pretreated for 1 hr followed by carrageenan challenge and measured after 2 hr relative to control (reference value: 0.00 +/-0.03 %); format: functional; details: time 3 hrs
Rattus norvegicus [5] = test: Antiinflammatory activity in Wistar rat model of carrageenan-induced paw edema assessed as reduction in thickness of paw edema at 10 mg/kg, ip pretreated for 1 hr followed by carrageenan challenge and measured after 3 hrs (reference value: 1.79 +/-0.07 mm); format: functional; details: time 4 hrs
Rattus norvegicus [6] = test: Anti-inflammatory activity in Wistar rat assessed as inhibition of carrageenan-induced paw edema at 10 mg/kg, ip pretreated for 1 hr followed by carrageenan challenge and measured after 3 hr relative to control (reference value: 0.00 +/-0.1 %); format: functional; details: time 4 hrs
Rattus norvegicus [7] = test: Antiinflammatory activity in Wistar rat model of carrageenan-induced paw edema assessed as reduction in thickness of paw edema at 10 mg/kg, ip pretreated for 1 hr followed by carrageenan challenge and measured after 4 hrs (reference value: 1.40 +/-0.10 mm); format: functional; details: time 5 hrs
Rattus norvegicus [8] = test: Anti-inflammatory activity in Wistar rat assessed as inhibition of carrageenan-induced paw edema at 10 mg/kg, ip pretreated for 1 hr followed by carrageenan challenge and measured after 4 hr relative to control (reference value: 0.00 +/-0.4 %); format: functional; details: time 5 hrs
Rattus norvegicus [9] = test: Antiinflammatory activity in Wistar rat model of carrageenan-induced paw edema assessed as reduction in thickness of paw edema at 10 mg/kg, ip pretreated for 1 hr followed by carrageenan challenge and measured after 24 hrs (reference value: 0.83 +/-0.08 mm); format: functional; details: time 25 hrs
Rattus norvegicus [10] = test: Anti-inflammatory activity in Wistar rat assessed as inhibition of carrageenan-induced paw edema at 10 mg/kg, ip pretreated for 1 hr followed by carrageenan challenge and measured after 24 hr relative to control (reference value: 0.00 +/-0.3 %); format: functional; details: time 25 hrs
Rattus norvegicus [11] = test: Anti-inflammatory activity in Wistar rat assessed as inhibition of carrageenan-induced paw edema at 10 mg/kg, ip pretreated for 1 hr followed by carrageenan challenge and measured after 4 hr relative to indomethacin; format: functional; details: time 5 hrs
[12] = Ulcerogenic activity in fasted albino mouse assessed as incidence of gastric ulceration at 10 mg/kg, po for 3 days (reference value: 0 %); format: toxicity, organism-based; details: in vivo, 72 h, time 3 day
[13] = Ulcerogenic activity in fasted albino mouse assessed as average number of ulcers in gastric mucosa at 10 mg/kg, po for 3 days (reference value: 0); format: toxicity, organism-based; details: in vivo, 72 h, time 3 day
[14] = Ulcerogenic activity in fasted albino mouse assessed as average severity of ulcers in gastric mucosa at 10 mg/kg, po for 3 days (reference value: 0); format: toxicity, organism-based; details: in vivo, 72 h, time 3 day
[15] = Ulcerogenic activity in fasted albino mouse assessed as ulcer index in gastric mucosa at 10 mg/kg, po for 3 days (reference value: 0); format: toxicity, organism-based; details: in vivo, 72 h, time 3 day
Splenocyte [16] = test: Immunomodulatory activity in Swiss albino mouse splenocytes assessed as cell viability at 10 uM by measuring stimulation index incubated for 72 hrs in presence of mitogenic stimulus phytohaemagglutinin by MTT assay (reference value: 1.00 +/- 0.24); format: functional
Splenocyte [17] = test: Immunomodulatory activity in Swiss albino mouse splenocytes assessed as cell viability at 10 uM by measuring inhibition of stimulation index incubated for 72 hrs in presence of mitogenic stimulus phytohaemagglutinin by MTT assay relative to indomethacin; format: functional; details: read-out: Activity
Peritoneal macrophage [18] = test: Antiinflammatory activity in […] mouse Peritoneal macrophages assessed as reduction in LPS-induced NO production by measuring reduction in stimulation index at 10 uM preincubated for 1 hr followed by LPS stimulation measured after 24 hrs by Griess method (reference value: 27.31 +/- 2.56 uM); format: functional; details: time 25 hrs
Peritoneal macrophage [19] = test: Antiinflammatory activity in […] mouse Peritoneal macrophages assessed as inhibition of LPS-induced NO production at 10 uM preincubated for 1 hr followed by LPS stimulation measured after 24 hrs by Griess method relative to control (reference value: 0.0 %); format: functional; set-up: scale not given: the % may be the effect or the level left; details: time 25 hrs
Mus musculus [20] = test: Analgesic activity in albino mouse assessed reduction in acetic acid-induced abdominal writhing by measuring writing reflex at 10 mg/kg, ip pretreated for 1 hr followed by acetic acid challenge and measured starting 5 mins post acetic acid challenge for 10 mins (reference value: 42.4 +/- 1.02); format: functional; details: time 75 min, 1.25 h
Mus musculus [21] = test: Analgesic activity in albino mouse assessed protection against acetic acid-induced abdominal writhing at 10 mg/kg, ip pretreated for 1 hr followed by acetic acid challenge and measured starting 5 mins post acetic acid challenge for 10 mins relative to control (reference value: 0 %); format: functional; details: time 75 min, 1.25 h
Mus musculus [22] = test: Analgesic activity in albino mouse assessed protection against acetic acid-induced abdominal writhing at 10 mg/kg, ip pretreated for 1 hr followed by acetic acid challenge and measured starting 5 mins post acetic acid challenge for 10 mins relative to indomethacin; format: functional; details: time 75 min, 1.25 h
Mus musculus [23] = test: Analgesic activity in albino mouse assessed as forepaw licking/jumping latency time at 10 mg/kg, ip measured after 30 mins by hot plate test (reference value: 5.02 +/- 0.09 sec); format: functional; details: 0.5 h
Mus musculus [24] = test: Analgesic activity in albino mouse assessed as protection at 10 mg/kg, ip measured after 30 mins by hot plate test (reference value: 0 %); format: functional; details: 0.5 h
Mus musculus [25] = test: Analgesic activity in albino mouse assessed as forepaw licking/jumping latency time at 10 mg/kg, ip measured after 60 mins by hot plate test (reference value: 3.42 +/- 0.03 sec); format: functional; details: 1 h
Mus musculus [26] = test: Analgesic activity in albino mouse assessed as protection at 10 mg/kg, ip measured after 60 mins by hot plate test (reference value: 0 %); format: functional; details: 1 h
Mus musculus [27] = test: Analgesic activity in albino mouse assessed as forepaw licking/jumping latency time at 10 mg/kg, ip measured after 90 mins by hot plate test (reference value: 2.72 +/- 0.01 sec); format: functional; details: 1.5 h
Mus musculus [28] = test: Analgesic activity in albino mouse assessed as protection at 10 mg/kg, ip measured after 90 mins by hot plate test (reference value: 0 %); format: functional; details: 1.5 h
Mus musculus [29] = test: Analgesic activity in albino mouse assessed as forepaw licking/jumping latency time at 10 mg/kg, ip measured after 120 mins by hot plate test (reference value: 2.62 +/- 0.06 sec); format: functional; details: 2 h
Mus musculus [30] = test: Analgesic activity in albino mouse assessed as protection at 10 mg/kg, ip measured after 120 mins by hot plate test (reference value: 0 %); format: functional; details: 2 h
Mus musculus [31] = test: Analgesic activity in albino mouse assessed as protection at 10 mg/kg, ip measured after 120 mins by hot plate test relative to indomethacin; format: functional; details: 2 h
Staphylococcus aureus = test: Antibacterial activity against Staphylococcus aureus ATCC 25923 incubated for 18 hrs by agar dilution method; format: functional
Streptococcus pyogenes = test: Antibacterial activity against Streptococcus pyogenes ATCC 19615 incubated for 18 hrs by agar dilution method; format: functional
Salmonella typhimurium = test: Antibacterial activity against Salmonella typhimurium ATCC 19430 incubated for 18 hrs by agar dilution assay; format: functional, Salmonella enterica subsp. enterica serovar Typhimurium; details: Salmonella enterica
Pseudomonas aeruginosa = test: Antibacterial activity against Pseudomonas aeruginosa ATCC 27853 incubated for 18 hrs by agar dilution assay; format: functional
Candida albicans = test: Antifungal activity against Candida albicans incubated for 18 to 24 hrs by CLSI method; format: functional; details: time 18-24 hrs
A549 = test: Antiproliferative activity against human A549 cells assessed as inhibition of cell growth after 72 hrs by MTT assay; format: functional, cell-based; details: A549, 72 h
MCF7 = test: Antiproliferative activity against human MCF7 cells assessed as inhibition of cell growth after 72 hrs by MTT assay; format: functional, cell-based; details: MCF7, 72 h
PC-3 = test: Antiproliferative activity against human PC3 cells assessed as inhibition of cell growth after 72 hrs by MTT assay; format: functional, cell-based; details: PC-3, 72 h
[32] = Toxicity in albino mouse assessed as induction of toxic symptoms at 50 to 100 mg/kg, ip measured after 24 hrs; format: organism-based; details: in vivo, dose 50-100 mg/kg

SMILES	Activity (Rattus norvegicus [1]) [mm]	inhibition in vivo at 10 mg/kg (Rattus norvegicus [2]) [%]	Activity (Rattus norvegicus [3]) [mm]	inhibition in vivo at 10 mg/kg (Rattus norvegicus [4]) [%]	Activity (Rattus norvegicus [5]) [mm]	inhibition in vivo at 10 mg/kg (Rattus norvegicus [6]) [%]	Activity (Rattus norvegicus [7]) [mm]	inhibition in vivo at 10 mg/kg (Rattus norvegicus [8]) [%]	Activity (Rattus norvegicus [9]) [mm]	inhibition in vivo at 10 mg/kg (Rattus norvegicus [10]) [%]	inhibition in vivo at 10 mg/kg (Rattus norvegicus [11]) [%]	Activity [12] [%]	Activity [13]	Activity [14]	UI [15]	Activity_index (Splenocyte [16])	viability at 10 µM (Splenocyte [17]) [%]	Activity (Peritoneal macrophage [18]) [µM]	Activity (Peritoneal macrophage [19]) [%]	Activity (Mus musculus [20])	also measured
COc1cc(/C=C/C(=O)/C=C(O)/C=C/c2ccc(OC(=O)[C@@H](C)N)c(OC)c2)ccc1OC(=O)[C@@H](C)N.Cl.Cl	0.95	61	0.79	62	0.46	74	0.06	96	0.59	29	110	0	0	0	0	1.35	89.6	16.04	41.26	13.8	Activity (Mus musculus [21]): 67.5%; Activity (Mus musculus [22]): 109.6%; Time (Mus musculus [23]): 5.3 s; Activity (Mus musculus [24]): 5.6%; Time (Mus musculus [25]): 5.82 s; Activity (Mus musculus [26]): 70.2%; Time (Mus musculus [27]): 4.72 s; Activity (Mus musculus [28]): 73.5%; Time (Mus musculus [29]): 4.02 s; Activity (Mus musculus [30]): 53.4%; Activity (Mus musculus [31]): 127.1%; MIC (Staphylococcus aureus): 0.125 µg/mL and 0.214 µM; MIC (Streptococcus pyogenes): 0.25 µg/mL and 0.428 µM; MIC (Salmonella typhimurium): 0.25 µg/mL and 0.428 µM; MIC (Pseudomonas aeruginosa): 1 µg/mL and 1.71 µM; MIC (Candida albicans): 0.125 µg/mL and 0.214 µM; IC50 (A549): 30.9 µM; IC50 (MCF7): 10.4 µM; IC50 (PC-3): 30.7 µM; Activity [32]: Non-Toxic
COc1cc(/C=C/C(=O)/C=C(O)/C=C/c2ccc(OC(=O)CN)c(OC)c2)ccc1OC(=O)CN.Cl.Cl	0.82	66	0.69	67	0.46	74	0.17	88	0.48	42	101	0	0	0	0	0.99	122	13.66	49.98	14.6	Activity (Mus musculus [21]): 65.6%; Activity (Mus musculus [22]): 106.5%; Time (Mus musculus [23]): 5.04 s; Activity (Mus musculus [24]): 0.4%; Time (Mus musculus [25]): 4.28 s; Activity (Mus musculus [26]): 25.1%; Time (Mus musculus [27]): 3.66 s; Activity (Mus musculus [28]): 34.6%; Time (Mus musculus [29]): 3.52 s; Activity (Mus musculus [30]): 34.4%; Activity (Mus musculus [31]): 81.9%; MIC (Staphylococcus aureus): 0.5 µg/mL and 0.9 µM; MIC (Streptococcus pyogenes): 0.25 µg/mL and 0.45 µM; MIC (Salmonella typhimurium): 0.25 µg/mL and 0.45 µM; MIC (Pseudomonas aeruginosa): 1 µg/mL and 1.8 µM; MIC (Candida albicans): 1 µg/mL and 1.8 µM; IC50 (A549): 18.9 µM; IC50 (MCF7): 9.15 µM; IC50 (PC-3): 38.7 µM; Activity [32]: Non-Toxic
